From US20250333431A1, “NEW CRYSTAL FORM OF TRISACCHARIDE” (SHANDONG HENGLU BIOTECH. CO., LTD., priority 2022, published 2025)

What was measured:
[1] = Moisture absorption measurement in a Constant Temperature & Humidity Chamber; assay type: physicochemical; conditions: for Moisture absorption rate, % / Weight gain after moisture absorption: after 5 days; for Weight gain after moisture absorption: about 1 g sample; for Appearance before experiment: before placing in chamber, open glass culture dish
Method: On the day before the constant temperature and moisture test, two dry glass culture dishes (without covers) are taken and placed in a Constant Temperature & Humidity Chamber at 25±1° C. and relative humidity of 75±2% for 4 h. The processed dishes are taken out and weighed accurately. The experiment is repeated until the weight is constant, and the data is recorded in Table 3.
Step 2. The raw material LNTII solid amorphous powder and the crystalline form B of LNTII obtained from Example 1 are weighed separately, placed in a glass culture dish without cover with constant weight in Step 1. The culture dish with samples added are placed in a Constant Temperature & Humidity Chamber at 25° C. and relative humidity of 75%. After 5 days, the samples are taken out to observe the appearance changes, weigh, and calculate the moisture absorption. The results are recorded in Table 2 and Table 3, respectively. The results of samples morphology before and after moisture absorption are shown in FIG. 5 and FIG. 6, respectively.
According to the method described herein in Example 9, the crystalline form B of LNTII prepared according to Examples 1-8 is placed in a glass culture dish without cover with constant weight in Step 1. The culture dish with samples added are placed in a Constant Temperature & Humidity Chamber at 25° C. and relative humidity of 75%. After 5 days, the samples are taken out to observe the appearance changes, weigh, and calculate the moisture absorption.

[2] = Stability study in a Constant Temperature & Humidity Chamber (LNTII content by HPLC and appearance); assay type: physicochemical; conditions: for Content, % (At the end of the 1st month): sealed with aluminum compound packing film; for Content, % (At the end of the 1st month) / Appearance (At the end of the 1st month): 1 month; for Appearance (At the end of the 1st month) / Content, % (At the end of the 2nd month) / Appearance (At the end of the 3rd month) / Content, % (At the end of the 3rd month): sealed; for Content, % (At the end of the 2nd month): 2 months; for Content, % (Day 0): LNTII content by HPLC
Method: In this invention, high-performance liquid chromatography (HPLC) is used to detect the content of LNTII under the following detection conditions:
Chromatographic column: Asahipak NH2P-504E 4.6 mm×250 mm, 5 μm, mobile phase: acetonitrile: water=65:35, flow rate: 1 mL/min, detector: UV-VIS detector, wavelength: 210 nm, column temperature: 30° C., sample volume: 10 μL, and the running time of 30 min.
An amount of 10 g of raw material before crystallization (i.e. LNTII amorphous powder obtained by spray-drying) and 10 g of crystalline form B of LNTII prepared by the method described herein in Examples 1-8 are weighed respectively, sealed with aluminum compound packing film, and placed in a Constant Temperature & Humidity Chamber under the test conditions of at constant temperature of 40° C. and relative humidity of 75%. Samples are taken at the end of the 1st month, the 2nd month, and the 3rd month to test the content of LNTII and observe its appearance.

[3] = 25° C., relative humidity 75%, Table 4, Examples 1-8
[4] = 40° C., relative humidity 75%, 3 months
[5] = 25° C., relative humidity 75%, Table 3, (weight gain/sample weight) × 100%

Structure (SMILES) | Moisture absorption rate, % [1, 3] [%] | Content, % (At the end of the 1st month) ([2]; 40° C., relative humidity 75%) [%] | Appearance (At the end of the 1st month) ([2]; 40° C., relative humidity 75%) | Content, % (At the end of the 2nd month) ([2]; 40° C., relative humidity 75%) [%] | Appearance (At the end of the 3rd month) [2, 4] | Content, % (At the end of the 3rd month) [2, 4] [%] | Content, % (Day 0) [2] [%] | Stability compared with amorphous powder (from appearance and moisture absorption) ([1]; 25° C., relative humidity 75%, 5 days, conclusion from Tables 2 and 3) | Moisture absorption rate, % [1, 5] [%] | Weight gain after moisture absorption ([1]; 25° C., relative humidity 75%) | Appearance before experiment [1] | Change of LNTII content during the stability experiment [2, 4] | Change of appearance/color during the stability experiment [2, 4]
CC(=O)NC1C(O)[C@H](O)C(CO)O[C@H]1OC1C(O)[C@H](O[C@@H]2C(CO)OC(O)C(O)C2O)OC(CO)[C@@H]1O (single isomer, unassigned) [Crystalline form B in Example 1, Lacto-N-triose II] | 14.02 | 96.81 | Off-white | 96.78 | Off-white | 96.76 | 96.8 |  |  |  |  |  | 
CC(=O)NC1C(O)[C@H](O)C(CO)O[C@H]1OC1C(O)[C@H](O[C@@H]2C(CO)OC(O)C(O)C2O)OC(CO)[C@@H]1O (single isomer, unassigned) [Crystalline form B in Example 2, Lacto-N-triose II] | 14.36 | 96.44 | Off-white | 96.42 | Off-white | 96.38 | 96.5 |  |  |  |  |  | 
CC(=O)NC1C(O)[C@H](O)C(CO)O[C@H]1OC1C(O)[C@H](O[C@@H]2C(CO)OC(O)C(O)C2O)OC(CO)[C@@H]1O (single isomer, unassigned) [Crystalline form B in Example 3, Lacto-N-triose II] | 13.57 | 96.92 | Off-white | 96.93 | Off-white | 96.84 | 96.9 |  |  |  |  |  | 
CC(=O)NC1C(O)[C@H](O)C(CO)O[C@H]1OC1C(O)[C@H](O[C@@H]2C(CO)OC(O)C(O)C2O)OC(CO)[C@@H]1O (single isomer, unassigned) [Crystalline form B in Example 4, Lacto-N-triose II] | 13.81 | 96.13 | Off-white | 96.06 | Off-white | 96.07 | 96.1 |  |  |  |  |  | 
CC(=O)NC1C(O)[C@H](O)C(CO)O[C@H]1OC1C(O)[C@H](O[C@@H]2C(CO)OC(O)C(O)C2O)OC(CO)[C@@H]1O (single isomer, unassigned) [Crystalline form B in Example 5, Lacto-N-triose II] | 13.79 | 93.56 | Off-white | 93.48 | Off-white | 93.34 | 93.4 |  |  |  |  |  | 
CC(=O)NC1C(O)[C@H](O)C(CO)O[C@H]1OC1C(O)[C@H](O[C@@H]2C(CO)OC(O)C(O)C2O)OC(CO)[C@@H]1O (single isomer, unassigned) [Crystalline form B in Example 6, Lacto-N-triose II] | 13.32 | 92.43 | Off-white | 92.39 | Off-white | 92.31 | 92.4 |  |  |  |  |  | 

Now from value to compound:

Moisture absorption rate, % [1, 3] [%] | Content, % (At the end of the 1st month) ([2]; 40° C., relative humidity 75%) [%] | Appearance (At the end of the 1st month) ([2]; 40° C., relative humidity 75%) | Content, % (At the end of the 2nd month) ([2]; 40° C., relative humidity 75%) [%] | Appearance (At the end of the 3rd month) [2, 4] | Content, % (At the end of the 3rd month) [2, 4] [%] | Content, % (Day 0) [2] [%] | Stability compared with amorphous powder (from appearance and moisture absorption) ([1]; 25° C., relative humidity 75%, 5 days, conclusion from Tables 2 and 3) | Moisture absorption rate, % [1, 5] [%] | Weight gain after moisture absorption ([1]; 25° C., relative humidity 75%) | Appearance before experiment [1] | Change of LNTII content during the stability experiment [2, 4] | Change of appearance/color during the stability experiment [2, 4] | Structure (SMILES)
13.04 | 93.77 | Off-white | 93.81 | Off-white | 93.75 | 93.8 |  |  |  |  |  |  | CC(=O)NC1C(O)[C@H](O)C(CO)O[C@H]1OC1C(O)[C@H](O[C@@H]2C(CO)OC(O)C(O)C2O)OC(CO)[C@@H]1O (single isomer, unassigned) [Crystalline form B in Example 7, Lacto-N-triose II]
13.61 | 96.48 | Off-white | 96.49 | Off-white | 96.46 | 96.5 |  |  |  |  |  |  | CC(=O)NC1C(O)[C@H](O)C(CO)O[C@H]1OC1C(O)[C@H](O[C@@H]2C(CO)OC(O)C(O)C2O)OC(CO)[C@@H]1O (single isomer, unassigned) [Crystalline form B in Example 8, Lacto-N-triose II]
 |  |  |  |  |  |  | better than that of amorphous powder | 16.16 | 0.1617 | Off-white |  |  | CC(=O)NC1C(O)[C@H](O)C(CO)O[C@H]1OC1C(O)[C@H](O[C@@H]2C(CO)OC(O)C(O)C2O)OC(CO)[C@@H]1O (stereo partly shown) [Crystalline form B of LNTII, Lacto-N-triose II]
 | 91.01 | Off-white | 90.86 |  | 90.01 | 91.24 |  | 29.47 | 0.2951 | Off-white powder | showed a decreasing trend | gradually changed to faint yellow | CC(=O)NC1C(O)[C@H](O)C(CO)O[C@H]1OC1C(O)[C@H](O[C@@H]2C(CO)OC(O)C(O)C2O)OC(CO)[C@@H]1O (stereo partly shown) [LNTII amorphous powder, Lacto-N-triose II, reference compound]
